The first test concerns the target human TLR8 (Homo sapiens (Human), UniProt Q9NR97). As to the kind of experiment: HEK293 NFKB reporter assay, human TLR8. Particulars: HEK293 reporter cells expressing human TLR8; read-out: HEK293 hTLR8 EC50. The class given is cell-based. As for the experimental part: (§1) Each compound was synthesized, purified, and characterized by mass spectrometry and shown to have the mass indicated. Additional experimental procedures are found in the Examples. Activity against HEK293 NFKB reporter cells expressing human TLR7 or human TLR8 was measured according to Example 202.
(§2) HEK293 reporter cells expressing human TLR7 or human TLR8 were purchased from Invivogen and vendor protocols were followed for cellular propagation and experimentation. Briefly, cells were grown to 80-85% confluence at 5% CO2 in DMEM supplemented with 10% FBS, Zeocin, and Blasticidin. Cells were then seeded in 96-well flat plates at 4×10^4 cells/well with substrate containing HEK detection medium and immunostimulatory molecules. Activity was measured using a plate reader at 620-655 nm wavelength.
On the technique in general: Reporter assays use an easily measured gene product as a stand-in for the process of interest.
human TLR8, sequence (Q9NR97 27-1041): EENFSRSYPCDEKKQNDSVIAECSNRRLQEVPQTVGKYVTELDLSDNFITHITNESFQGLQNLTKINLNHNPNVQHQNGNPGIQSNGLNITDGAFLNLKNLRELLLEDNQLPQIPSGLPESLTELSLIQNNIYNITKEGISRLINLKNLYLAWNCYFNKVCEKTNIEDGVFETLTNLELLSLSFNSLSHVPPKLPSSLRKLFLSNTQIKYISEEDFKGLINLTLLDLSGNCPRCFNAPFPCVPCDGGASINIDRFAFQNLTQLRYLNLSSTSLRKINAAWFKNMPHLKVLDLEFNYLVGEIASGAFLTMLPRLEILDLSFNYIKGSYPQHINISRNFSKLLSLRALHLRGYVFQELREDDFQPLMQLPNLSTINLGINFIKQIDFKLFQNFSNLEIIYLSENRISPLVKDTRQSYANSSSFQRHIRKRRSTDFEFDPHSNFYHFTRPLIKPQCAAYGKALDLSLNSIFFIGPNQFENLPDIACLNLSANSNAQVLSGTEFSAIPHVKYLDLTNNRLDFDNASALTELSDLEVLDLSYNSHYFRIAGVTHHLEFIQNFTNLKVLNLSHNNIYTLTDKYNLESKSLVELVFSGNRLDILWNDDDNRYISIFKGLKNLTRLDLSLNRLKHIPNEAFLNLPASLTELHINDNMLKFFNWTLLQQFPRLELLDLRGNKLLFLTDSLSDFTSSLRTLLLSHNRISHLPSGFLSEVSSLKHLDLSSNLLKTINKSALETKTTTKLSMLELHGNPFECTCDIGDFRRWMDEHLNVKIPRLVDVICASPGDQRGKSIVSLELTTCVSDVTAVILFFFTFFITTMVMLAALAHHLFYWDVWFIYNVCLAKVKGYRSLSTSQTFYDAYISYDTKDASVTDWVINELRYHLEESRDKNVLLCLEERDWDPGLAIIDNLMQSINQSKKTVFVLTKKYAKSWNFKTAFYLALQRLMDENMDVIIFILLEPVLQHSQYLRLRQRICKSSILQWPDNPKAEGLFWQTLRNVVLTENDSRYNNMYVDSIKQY
In the case of `CCCN(OCCNC(=O)NC1COC1)C(=O)C1=Cc2ccc(-c3cnc(CN)nc3)cc2N=C(N)C1` [CycBz-17], the EC50 (in general, the concentration at which the effect is half-maximal) came to 9 µM.

As to `CCCN(OCC)C(=O)C1=Cc2ccc(-c3ccc(C(=O)N4CCC(N)C4)cc3)cc2N=C(N)C1` (centres unmarked) [CycBz-54], the EC50 turned out to be 0.86 µM. On the same count and under the same terms, in the case of `CCCN(CCCO)C(=O)C1=Cc2ccc(-c3cnc(CN)nc3)cc2N=C(N)C1` [CycBz-26] it was 9 µM; in that of `CCCN(CCO)C(=O)C1=Cc2ccc(-c3cccc(S(=O)(=O)N4CC(CN)C4)c3)cc2N=C(N)C1` [CycBz-68], 4.91 µM. The same measure, in the same setting: in the case of `CCCN(OCC)C(=O)C1=Cc2ccc(-c3cc(CN)ncn3)cc2N=C(N)C1` [CycBz-48] it was 2.16 µM; in that of `CCCN(CCCO)C(=O)C1=Cc2ccc(-c3cccc(S(=O)(=O)N4CC(CNC(=O)OC(C)(C)C)C4)c3)cc2N=C(N)C1` [CycBz-58], 0.374 µM. For `CCCN(OCC)C(=O)C1=Cc2ccc(-c3ccc(C(=O)N[C@H](C)C(=O)OC(C)(C)C)cc3)cc2N=C(N)C1` [CycBz-75], the EC50 came to 0.086 µM. Consider `CCCN(OCC)C(=O)C1=Cc2ccc(-c3ccc(C(=O)N4CCC[C@H]4C(=O)OC)cc3)cc2N=C(N)C1` [CycBz-59], for which the EC50 amounted to 0.006 µM. Same read-out and setting: the result for `CCCN(OCC)C(=O)C1=Cc2ccc(-c3ccc(C(=O)N4CCC[C@@H]4C(=O)OC)cc3)cc2N=C(N)C1` [CycBz-64] reads 0.097 µM. Turning to `CCCN(CCCCO)C(=O)C1=Cc2ccc(-c3cccc(S(=O)(=O)N4CC(CN)C4)c3)cc2N=C(N)C1` [CycBz-62], the EC50 stood at 4.66 µM. On the same count and under the same terms, the result for `CCCN(CCCNC(N)=O)C(=O)C1=Cc2ccc(-c3cccc(S(=O)(=O)N4CC(CN)C4)c3)cc2N=C(N)C1` [CycBz-70] reads 9 µM; that for `CCCN(OCC)C(=O)C1=Cc2ccc(-c3ccc(C(=O)OC)cc3)cc2N=C(N)C1` [CycBz-52], 0.629 µM; that for `CCCN(OCC)C(=O)C1=Cc2ccc(-c3cccc(S(=O)(=O)N4CC(CNC(=O)C5CCNCC5)C4)c3)cc2N=C(N)C1` [CycBz-51], 4.19 µM. On the same count and under the same terms, in the case of `CCCN(OCC)C(=O)C1=Cc2ccc(-c3ccc(C(=O)N4CCC(NC(=O)OC(C)(C)C)C4)cc3)cc2N=C(N)C1` (centres unmarked) [CycBz-55] it was 0.377 µM; in that of `CCCN(CCCO)C(=O)C1=Cc2ccc(-c3cccc(S(=O)(=O)N4CC(CN)C4)c3)cc2N=C(N)C1` [CycBz-63], 3.61 µM. Regarding `CCCN(OCC(F)(F)F)C(=O)C1=Cc2ccc(-c3cccc(S(=O)(=O)N4CC(CN)C4)c3)cc2N=C(N)C1` [CycBz-49], the 50% effective concentration (EC50) is 0.461 µM. As for `CCCN(OCCNC(=O)OC1CCC1)C(=O)C1=Cc2ccc(-c3cccc(S(=O)(=O)N4CC(CN)C4)c3)cc2N=C(N)C1` [CycBz-60], the EC50 amounted to 0.163 µM.

On to `CCCN(OCC)C(=O)C1=Cc2ccc(-c3ccc(C(=O)N4CCCC4)cc3)cc2N=C(N)C1` [CycBz-67], for which the EC50 is 0.256 µM. The same measure, in the same setting: the result for `CCCN(CC1CNC(=O)CO1)C(=O)C1=Cc2ccc(-c3cnc(CN)nc3)cc2N=C(N)C1` (centres unmarked) [CycBz-42] reads 9 µM. As for `CCCN(CCCNC(=O)OC1CCC1)C(=O)C1=Cc2ccc(-c3cccc(S(=O)(=O)N4CC(CN)C4)c3)cc2N=C(N)C1` [CycBz-65], the concentration for a half-maximal effect (EC50) amounted to 1.56 µM. Regarding `CCCN(OCC)C(=O)C1=Cc2ccc(-c3ccc(C(=O)N[C@@H](C)C(=O)OC(C)(C)C)cc3)cc2N=C(N)C1` [CycBz-74], the concentration giving a half-maximal response (EC50) was 0.012 µM.

Another test deals with human TLR7 (Homo sapiens (Human), UniProt Q9NYK1). As to the kind of experiment: HEK293 NFKB reporter assay, human TLR7. To be noted: HEK293 reporter cells expressing human TLR7; read-out: HEK293 hTLR7 EC50. The class given is cell-based. As for the experimental part: as §1, §2
human TLR7, sequence (Q9NYK1 27-1049): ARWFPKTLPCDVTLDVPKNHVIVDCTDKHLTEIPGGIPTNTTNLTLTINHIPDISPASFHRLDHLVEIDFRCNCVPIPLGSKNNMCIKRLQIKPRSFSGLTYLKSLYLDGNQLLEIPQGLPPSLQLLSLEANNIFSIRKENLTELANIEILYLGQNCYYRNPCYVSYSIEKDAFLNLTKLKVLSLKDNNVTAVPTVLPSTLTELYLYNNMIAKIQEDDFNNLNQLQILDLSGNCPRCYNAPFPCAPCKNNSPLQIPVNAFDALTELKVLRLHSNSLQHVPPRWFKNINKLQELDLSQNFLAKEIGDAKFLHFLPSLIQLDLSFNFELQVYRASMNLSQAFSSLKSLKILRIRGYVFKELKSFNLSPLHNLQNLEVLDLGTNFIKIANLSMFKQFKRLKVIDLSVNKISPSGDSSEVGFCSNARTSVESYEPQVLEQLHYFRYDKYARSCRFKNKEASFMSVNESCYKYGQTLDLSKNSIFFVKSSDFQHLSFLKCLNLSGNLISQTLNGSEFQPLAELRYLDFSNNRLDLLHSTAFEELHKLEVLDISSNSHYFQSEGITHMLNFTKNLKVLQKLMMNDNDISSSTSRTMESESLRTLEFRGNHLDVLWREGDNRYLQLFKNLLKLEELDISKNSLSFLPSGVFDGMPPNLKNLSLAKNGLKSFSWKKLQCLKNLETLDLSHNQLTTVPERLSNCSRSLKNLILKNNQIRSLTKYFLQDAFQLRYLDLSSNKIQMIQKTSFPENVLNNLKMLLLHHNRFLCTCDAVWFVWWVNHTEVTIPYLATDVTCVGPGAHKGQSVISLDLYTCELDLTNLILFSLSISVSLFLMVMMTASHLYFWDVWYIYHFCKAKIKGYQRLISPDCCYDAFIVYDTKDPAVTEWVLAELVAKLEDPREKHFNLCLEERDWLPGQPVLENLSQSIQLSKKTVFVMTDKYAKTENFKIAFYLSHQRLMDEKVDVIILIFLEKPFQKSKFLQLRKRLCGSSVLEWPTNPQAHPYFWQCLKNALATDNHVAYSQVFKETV
Regarding `CCCN(OCCNC(=O)NC1COC1)C(=O)C1=Cc2ccc(-c3cnc(CN)nc3)cc2N=C(N)C1` [CycBz-17], the EC50 came out at 9 µM. Still for that read-out and setting: in the case of `CCCN(OCC)C(=O)C1=Cc2ccc(-c3ccc(C(=O)N4CCC(N)C4)cc3)cc2N=C(N)C1` (centres unmarked) [CycBz-54] it was 3.09 µM; in that of `CCCN(CCCO)C(=O)C1=Cc2ccc(-c3cnc(CN)nc3)cc2N=C(N)C1` [CycBz-26], 9 µM. Take `CCCN(CC1CNC(=O)O1)C(=O)C1=Cc2ccc(-c3cnc(CN)nc3)cc2N=C(N)C1` (centres unmarked) [CycBz-25]: the EC50 was 9 µM.

With `CCCN(CCO)C(=O)C1=Cc2ccc(-c3cccc(S(=O)(=O)N4CC(CN)C4)c3)cc2N=C(N)C1` [CycBz-68], the EC50 came out at 9 µM. On the same count and under the same terms, in the case of `CCCN(OCC)C(=O)C1=Cc2ccc(-c3cc(CN)ncn3)cc2N=C(N)C1` [CycBz-48] it was 9 µM; in that of `CCCN(C(=O)C1=Cc2ccc(-c3cnc(CN)nc3)cc2N=C(N)C1)[C@H]1C[C@H](NC(=O)OC2CCC2)C1` [CycBz-44], 9 µM; in that of `CCCN(CCCO)C(=O)C1=Cc2ccc(-c3cccc(S(=O)(=O)N4CC(CNC(=O)OC(C)(C)C)C4)c3)cc2N=C(N)C1` [CycBz-58], 7.15 µM. Still for that read-out and setting: in the case of `CCCN(OCC)C(=O)C1=Cc2ccc(-c3ccc(C(=O)N[C@H](C)C(=O)OC(C)(C)C)cc3)cc2N=C(N)C1` [CycBz-75] it was 4.75 µM.

Take `CCCN(OCC)C(=O)C1=Cc2ccc(-c3ccc(C(=O)N4CCC[C@H]4C(=O)OC)cc3)cc2N=C(N)C1` [CycBz-59]: the concentration for a half-maximal effect (EC50) amounted to 0.047 µM. The same measure, in the same setting: in the case of `CCCN(OCC)C(=O)C1=Cc2ccc(-c3ccc(C(=O)N4CCC[C@@H]4C(=O)OC)cc3)cc2N=C(N)C1` [CycBz-64] it was 3.43 µM; in that of `CCCN(OCC)C(=O)C1=Cc2ccc(-c3ncc(CN)cn3)cc2N=C(N)C1` [CycBz-10], 9 µM; in that of `CCCN(CCCCO)C(=O)C1=Cc2ccc(-c3cccc(S(=O)(=O)N4CC(CN)C4)c3)cc2N=C(N)C1` [CycBz-62], 9 µM.

For `CCCN(CCCNC(N)=O)C(=O)C1=Cc2ccc(-c3cccc(S(=O)(=O)N4CC(CN)C4)c3)cc2N=C(N)C1` [CycBz-70], the concentration giving a half-maximal response (EC50) was 9 µM. `CCCN(OCCO)C(=O)C1=Cc2ccc(-c3cncc(S(=O)(=O)N4CC(CN)C4)c3)cc2N=C(N)C1` [CycBz-43]: the EC50 is 9 µM.

As to `CCCN(OCC)C(=O)C1=Cc2ccc(-c3ccc(C(=O)OC)cc3)cc2N=C(N)C1` [CycBz-52], the EC50 stood at 5.76 µM.

Turning to `CCCN(OCC)C(=O)C1=Cc2ccc(-c3cccc(S(=O)(=O)N4CC(CNC(=O)C5CCNCC5)C4)c3)cc2N=C(N)C1` [CycBz-51], the EC50 came out at 9 µM. In the case of `CCCN(OCC)C(=O)C1=Cc2ccc(-c3ccc(C(=O)N4CCC(NC(=O)OC(C)(C)C)C4)cc3)cc2N=C(N)C1` (centres unmarked) [CycBz-55], the EC50 worked out at 3.68 µM. Same read-out and setting: the result for `CCCN(CCCO)C(=O)C1=Cc2ccc(-c3cccc(S(=O)(=O)N4CC(CN)C4)c3)cc2N=C(N)C1` [CycBz-63] reads 9 µM. Still for that read-out and setting: in the case of `CCCN(OCC1COC(=O)N1)C(=O)C1=Cc2ccc(-c3cnc(CN)nc3)cc2N=C(N)C1` (centres unmarked) [CycBz-46] it was 9 µM. Still for that read-out and setting: in the case of `CCCN(OCC(F)(F)F)C(=O)C1=Cc2ccc(-c3cccc(S(=O)(=O)N4CC(CN)C4)c3)cc2N=C(N)C1` [CycBz-49] it was 3.93 µM; in that of `CCCN(OCCNC(=O)OC1CCC1)C(=O)C1=Cc2ccc(-c3cccc(S(=O)(=O)N4CC(CN)C4)c3)cc2N=C(N)C1` [CycBz-60], 0.738 µM. With `CCCN(OCC)C(=O)C1=Cc2ccc(-c3ccc(C(=O)N4CCCC4)cc3)cc2N=C(N)C1` [CycBz-67], the concentration giving a half-maximal response (EC50) was found to be 3.01 µM. On the same count and under the same terms, in the case of `CCCN(CC1CNC(=O)CO1)C(=O)C1=Cc2ccc(-c3cnc(CN)nc3)cc2N=C(N)C1` (centres unmarked) [CycBz-42] it was 9 µM. Take `CCCN(CCCNC(=O)OC1CCC1)C(=O)C1=Cc2ccc(-c3cccc(S(=O)(=O)N4CC(CN)C4)c3)cc2N=C(N)C1` [CycBz-65]: the EC50 turned out to be 2.31 µM. In the case of `CCCN(OCC)C(=O)C1=Cc2ccc(-c3ccc(C(=O)N[C@@H](C)C(=O)OC(C)(C)C)cc3)cc2N=C(N)C1` [CycBz-74], the concentration for a half-maximal effect (EC50) came to 1.92 µM.

The record behind these values is US20240033370A1, “ANTI-PD-L1 IMMUNOCONJUGATES, AND USES THEREOF” (BOLT BIOTHERAPEUTICS, INC., priority 2020, published 2024).
